In US12054487B2, “Muscarinic acetylcholine M1 receptor antagonists” (Contineum Therapeutics, Inc., priority 2018, dated 2024) one finds IC50 data, which are given here for 18 compounds.

A value given as a limit tells only on which side of the number the result lay.

What all share (type): cell-based
One experiment concerns the target T1, human M1 receptor (Homo sapiens, UniProt P11229).
T1 construct: host or cells: CHO-K1
T1 sequence (P11229 1-460): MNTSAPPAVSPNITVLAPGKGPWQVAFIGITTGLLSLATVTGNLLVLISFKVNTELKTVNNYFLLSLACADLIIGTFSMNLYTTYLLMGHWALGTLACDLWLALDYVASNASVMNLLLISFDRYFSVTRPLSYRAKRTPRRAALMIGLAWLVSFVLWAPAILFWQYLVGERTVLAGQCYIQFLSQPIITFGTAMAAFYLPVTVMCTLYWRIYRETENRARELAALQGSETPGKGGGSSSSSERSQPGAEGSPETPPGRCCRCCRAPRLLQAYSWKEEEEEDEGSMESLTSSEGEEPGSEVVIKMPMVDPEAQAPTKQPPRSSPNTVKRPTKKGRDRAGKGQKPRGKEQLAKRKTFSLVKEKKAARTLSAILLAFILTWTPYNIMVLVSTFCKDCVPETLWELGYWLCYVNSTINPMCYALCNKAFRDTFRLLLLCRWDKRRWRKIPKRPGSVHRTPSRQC
Nature of the experiment: In vitro functional assay of muscarinic acetylcholine receptor activity (aequorin calcium flux, antagonist mode vs EC80 acetylcholine), M1. The note with it: CHO-K1 cells stably expressing human M1 receptor with Aequorin; decrease in EC80 acetylcholine response. As to the method:
(§1) CHO-K1 cells stably expressing human M1 receptor with Aequorin (Perkin Elmer) were grown in F12 media, 10% FBS with 0.4 mg/mL geneticin and […]. Cells were grown to confluence and frozen down to be assayed at a later date. On the day of the experiment cells were thawed in a 37° C. water bath, resuspended in DMEM/HAM's F12 with HEPES (Invitrogen)+0.1% protease-free BSA (assay buffer), and spun down to remove freezing media. After centrifugation, supernatant was removed and 12 mL of assay buffer was added. Coelenterazine h (Promega) was added to the cells at a final concentration of 5 uM and incubated for 4 hours at room temperature in the dark. Compound master plate-96 deep well (Corning) were formatted in a 8-point DRC in assay buffer with 0.2% DMSO at a starting concentration of 60 uM (2×). After 4 hours of incubation, cells were plated at a concentration of 5×10^5 cells/well in 96 well white-walled, tissue culture-treated, clear-bottom plates (VWR). Compounds were added to the daughter plate, and cells plus compound were incubated at room temperature for 30 minutes in the dark.
(§2) Calcium flux was measured using the FlexStation 3 (Molecular Devices). To measure the antagonist dose-response, the EC80 of Acetylcholine was injected to the daughter plate using the automated compound transfer function of the Flex Station, and the increase in luminescence was measured over time. Antagonist activity was analyzed as a concentration dependent decrease in the EC80 acetylcholine response. Dose response curves were generated using Prism (GraphPad Software). The IC50 of the compounds was calculated from the dose response curve.

The next experiment has as its target M3 (Homo sapiens, UniProt P20309). Nature of the experiment: In vitro functional assay of muscarinic acetylcholine receptor activity, M3. The note with it: antagonist activity; M3 method not separately described. As to the method: [The procedure below names another target; the source lists this target under the same test.] as §1, §2
For another experiment, the target named is T2, M2 (Homo sapiens, UniProt P08172).
T2 sequence (P08172 1-466): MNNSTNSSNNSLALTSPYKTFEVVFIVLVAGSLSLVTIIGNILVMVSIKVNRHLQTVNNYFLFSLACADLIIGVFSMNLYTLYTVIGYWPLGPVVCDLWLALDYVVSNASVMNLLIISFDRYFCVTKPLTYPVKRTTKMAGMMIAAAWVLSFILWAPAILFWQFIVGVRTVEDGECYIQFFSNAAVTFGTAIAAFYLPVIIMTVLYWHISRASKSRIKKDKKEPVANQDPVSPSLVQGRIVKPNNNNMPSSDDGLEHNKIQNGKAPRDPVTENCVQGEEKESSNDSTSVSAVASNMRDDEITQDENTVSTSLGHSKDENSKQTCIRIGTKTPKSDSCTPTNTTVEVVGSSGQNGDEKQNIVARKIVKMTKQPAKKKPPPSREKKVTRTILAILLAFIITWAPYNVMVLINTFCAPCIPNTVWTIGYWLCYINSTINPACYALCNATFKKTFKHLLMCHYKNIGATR
Nature of the experiment: In vitro functional assay of muscarinic acetylcholine receptor activity, M2. The note with it: antagonist activity; M2 method not separately described. The procedure:
[The procedure below names another target; the source lists this target under the same test.] as §1, §2

Chain of M3 (P20309 whole entry): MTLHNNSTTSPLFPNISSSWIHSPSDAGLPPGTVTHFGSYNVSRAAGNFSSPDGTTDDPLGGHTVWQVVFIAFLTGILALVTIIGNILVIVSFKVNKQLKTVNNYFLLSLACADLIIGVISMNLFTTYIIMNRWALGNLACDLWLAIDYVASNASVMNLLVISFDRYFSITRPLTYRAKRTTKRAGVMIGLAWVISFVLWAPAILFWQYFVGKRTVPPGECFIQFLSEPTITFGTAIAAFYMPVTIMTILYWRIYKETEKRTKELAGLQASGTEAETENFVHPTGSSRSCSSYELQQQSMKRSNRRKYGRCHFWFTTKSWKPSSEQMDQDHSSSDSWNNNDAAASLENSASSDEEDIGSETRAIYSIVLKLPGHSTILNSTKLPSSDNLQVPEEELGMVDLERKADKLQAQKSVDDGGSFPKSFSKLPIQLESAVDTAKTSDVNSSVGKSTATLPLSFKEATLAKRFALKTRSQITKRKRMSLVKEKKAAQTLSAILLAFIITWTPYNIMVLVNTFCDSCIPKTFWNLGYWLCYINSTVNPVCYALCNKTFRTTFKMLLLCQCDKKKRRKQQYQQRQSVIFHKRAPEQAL

Turning to `COc1ccc(N2CCN3C(=O)[C@@H](CCCc4cccc5ncnn45)C[C@H]3C2)cn1` [Example 38, (7S,8aS)-7-(3-([1,2,4]triazolo[1,5-a]pyridin-5-yl)propyl)-2-(6-methoxypyridin-3-yl)hexahydropyrrolo[1,2-a]pyrazin-6(2H)-one], the IC50 – broadly, the concentration needed to halve the response being measured – is 1000 to 10000 nM at human M1 receptor, above 10000 nM on M3 and above 10000 nM on M2.
In the case of `N#Cc1ccc(N2CCN3C(=O)[C@@H](CNCc4cccc5ncnn45)C[C@H]3C2)nc1` [Example 5, 6-((7R,8aS)-7-((([1,2,4]triazolo[1,5-a]pyridin-5-ylmethyl)amino)methyl)-6-oxohexahydropyrrolo[1,2-a]pyrazin-2(1H)-yl)nicotinonitrile], the IC50 at human M1 receptor is 100 to 1000 nM; against M3, above 10000 nM; against M2, 1000 to 10000 nM.
The corresponding values for `N#Cc1ccc(N2CCN3C(=O)[C@@H](CCCc4cccc5c4CCO5)C[C@H]3C2)nc1` [Example 19, 6-((7S,8aS)-7-(3-(2,3-dihydrobenzofuran-4-yl)propyl)-6-oxohexahydropyrrolo[1,2-a]pyrazin-2(1H)-yl)nicotinonitrile] are below 100 nM, 1000 to 10000 nM and 100 to 1000 nM.
Taken in the same sequence, the figures for `N#Cc1ccc(N2CCN3C(=O)[C@@H](CCCc4cccc5nnnn45)C[C@H]3C2)nc1` [Example 17, 6-((7S,8aS)-6-oxo-7-(3-(tetrazolo[1,5-a]pyridin-5-yl)propyl)hexahydropyrrolo[1,2-a]pyrazin-2(1H)-yl)nicotinonitrile] were below 100 nM, 1000 to 10000 nM and 1000 to 10000 nM.
The corresponding values for `Cc1ccc(N2CCN3C(=O)[C@@H](CCCc4cccc5ncnn45)C[C@H]3C2)nn1` [Example 48, (7S,8aS)-7-(3-([1,2,4]triazolo[1,5-a]pyridin-5-yl)propyl)-2-(6-methylpyridazin-3-yl)hexahydropyrrolo[1,2-a]pyrazin-6(2H)-one] are below 100 nM, 1000 to 10000 nM and 1000 to 10000 nM.
Turning to `COCc1ccc(N2CCN3C(=O)[C@@H](CCCc4cccc5ncnn45)C[C@H]3C2)nc1` [Example 49, (7S,8aS)-7-(3-([1,2,4]triazolo[1,5-a]pyridin-5-yl)propyl)-2-(5-(methoxymethyl)pyridin-2-yl)hexahydropyrrolo[1,2-a]pyrazin-6(2H)-one], the figures for the IC50 on human M1 receptor, at M3 and against M2 were below 100 nM, 1000 to 10000 nM and 1000 to 10000 nM, respectively.
Turning to `O=C1[C@@H](CCCc2cccc3ncnn23)C[C@H]2CN(c3ccc(F)cc3)CCN12` [Example 47, (7S,8aS)-7-(3-([1,2,4]triazolo[1,5-a]pyridin-5-yl)propyl)-2-(4-fluorophenyl)hexahydropyrrolo[1,2-a]pyrazin-6(2H)-one], the IC50 was 100 to 1000 nM at human M1 receptor, above 10000 nM on M3 and above 10000 nM against M2.
Regarding `O=C1C(CCCc2cccc3ncnn23)C[C@H]2CN(c3cncc(Cl)c3)CCN12` (mixture of isomers) [Example 44, (8aS)-7-(3-([1,2,4]triazolo[1,5-a]pyridin-5-yl)propyl)-2-(5-chloropyridin-3-yl)hexahydropyrrolo[1,2-a]pyrazin-6(2H)-one], the IC50 on human M1 receptor is 1000 to 10000 nM; against M3, above 10000 nM; at M2 it was 1000 to 10000 nM.
Turning to `N#Cc1ccc(N2CCN3C(=O)[C@@H](CCCc4cccc5c4NCCN5)C[C@H]3C2)nc1` [Example 61, 6-((7S,8aS)-6-oxo-7-(3-(1,2,3,4-tetrahydroquinoxalin-5-yl)propyl)hexahydropyrrolo[1,2-a]pyrazin-2(1H)-yl)nicotinonitrile], the IC50 is 100 to 1000 nM on human M1 receptor, above 10000 nM on M3 and 1000 to 10000 nM against M2.
In the case of `O=C1[C@@H](CCCc2cccn3ncnc23)C[C@H]2CN(c3ncc(F)cn3)CCN12` [Example 63, (7S,8aS)-7-(3-([1,2,4]triazolo[1,5-a]pyridin-8-yl)propyl)-2-(5-fluoropyrimidin-2-yl)hexahydropyrrolo[1,2-a]pyrazin-6(2H)-one], the IC50 is below 100 nM at human M1 receptor, 1000 to 10000 nM against M3 and above 10000 nM against M2.
The corresponding values for `O=C1[C@@H](CCCc2cccc3nccn23)C[C@H]2CN(c3ccncc3F)CCN12` [Example 3, (7S,8aS)-2-(3-fluoropyridin-4-yl)-7-(3-(imidazo[1,2-a]pyridin-5-yl)propyl)hexahydropyrrolo[1,2-a]pyrazin-6(2H)-one] are 100 to 1000 nM, 1000 to 10000 nM and above 10000 nM.
As for `O=C1[C@@H](CCCc2cccc3nccnc23)C[C@H]2CN(c3ccc(F)cn3)CCN12` [Example 93, (7S,8aS)-2-(5-fluoropyridin-2-yl)-7-(3-(quinoxalin-5-yl)propyl)hexahydropyrrolo[1,2-a]pyrazin-6(2H)-one], the IC50 was below 100 nM at human M1 receptor, 1000 to 10000 nM at M3 and above 10000 nM at M2.
Taken in the same sequence, the figures for `O=C1[C@@H](CCCc2cccc3ncnn23)C[C@H]2CN(c3ncc(F)cn3)CCN12` [Example 35, (7S,8aS)-7-(3-([1,2,4]triazolo[1,5-a]pyridin-5-yl)propyl)-2-(5-fluoropyrimidin-2-yl)hexahydropyrrolo[1,2-a]pyrazin-6(2H)-one] were below 100 nM, above 10000 nM and above 10000 nM.
Regarding `Cc1cc(N2CCN3C(=O)C(CCCc4cccc5ncnn45)C[C@H]3C2)ncc1F` (mixture of isomers) [Example 42, (7S,8aS)-7-(3-([1,2,4]triazolo[1,5-a]pyridin-5-yl)propyl)-2-(5-fluoro-4-methylpyridin-2-yl)hexahydropyrrolo[1,2-a]pyrazin-6(2H)-one], the IC50 at human M1 receptor is above 10000 nM; against M3 it was above 10000 nM; against M2, 1000 to 10000 nM.
Turning to `Cn1cnc2cccc(CCC[C@H]3C[C@H]4CN(c5ccc(C#N)cn5)CCN4C3=O)c21` [Example 54, 6-((7S,8aS)-7-(3-(1-methyl-1H-benzo[d]imidazol-7-yl)propyl)-6-oxohexahydropyrrolo[1,2-a]pyrazin-2(1H)-yl)nicotinonitrile], the IC50 was below 100 nM at human M1 receptor, 1000 to 10000 nM against M3 and 100 to 1000 nM on M2.
Take `N#Cc1ccc(N2CCN3C(=O)[C@@H](CCCc4cccc5ncsc45)C[C@H]3C2)nc1` [Example 10, 6-((7S,8aS)-7-(3-(benzo[d]thiazol-7-yl)propyl)-6-oxohexahydropyrrolo[1,2-a]pyrazin-2(1H)-yl)nicotinonitrile]: the IC50 on human M1 receptor was below 100 nM; at M3, 1000 to 10000 nM; on M2, 100 to 1000 nM.
Taken in the same sequence, the figures for `N#Cc1ccc(N2CCN3C(=O)[C@@H](CCCc4cccc5nccnc45)C[C@H]3C2)nc1` [Example 60, 6-((7S,8aS)-6-oxo-7-(3-(quinoxalin-5-yl)propyl)hexahydropyrrolo[1,2-a]pyrazin-2(1H)-yl)nicotinonitrile] were below 100 nM, 100 to 1000 nM and below 100 nM.
As to `O=C1[C@@H](CCCc2cccn3ncnc23)C[C@H]2CN(c3ccc(F)cc3F)CCN12` [Example 71, (7S,8aS)-7-(3-([1,2,4]triazolo[1,5-a]pyridin-8-yl)propyl)-2-(2,4-difluorophenyl)hexahydropyrrolo[1,2-a]pyrazin-6(2H)-one], the concentration for half-maximal inhibition (IC50) on human M1 receptor is 1000 to 10000 nM; against M3, above 10000 nM; against M2, 1000 to 10000 nM.
